In patent US9586961B2, “Homopiperazine derivatives as protein tyrosine kinase inhibitors and pharmaceutical use thereof” (LEO PHARMA A/S, priority 2010, dated 2017):
pEC50: −log10 of the molar value.

How the values were obtained:
Assay type in all cases: biochemical
JAK3 = molecular target: T1, JAK3 (Homo sapiens, UniProt P52333); test: JAK3 kinase assay (HTRF, inhibition of phosphorylation of a synthetic peptide); conditions: catalytic domain, His-tag; 2 μM ATP (Km); read-out: JAK3 kinase inhibitory activity (EC50)
T1 construct: All four purified enzymes contain only the catalytic domain; His (N); purchased Carna Biosciences, Inc; host or cells: baculovirus expression system
T1 sequence (P52333 822-1111 limits assumed): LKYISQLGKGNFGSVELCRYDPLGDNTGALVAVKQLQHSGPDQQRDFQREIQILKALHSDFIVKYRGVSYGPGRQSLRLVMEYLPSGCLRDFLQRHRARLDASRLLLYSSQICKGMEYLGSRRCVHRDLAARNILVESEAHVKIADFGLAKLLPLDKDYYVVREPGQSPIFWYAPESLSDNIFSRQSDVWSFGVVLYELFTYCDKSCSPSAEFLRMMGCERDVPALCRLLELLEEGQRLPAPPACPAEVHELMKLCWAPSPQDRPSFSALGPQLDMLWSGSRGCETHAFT
Summary of the method: (§1)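 HTRF detection (streptavidin-XL665, cryptate anti-phospho antibody, overnight in the dark) after EDTA stop of a 20-30 min RT reaction on 1 μM TK substrate-biotin. Km-level ATP per kinase: 7 μM for JAK1 and 13 μM for TYK2, both N-terminal GST, with 50 nM SEB; 4 μM for JAK2 and 2 μM for JAK3, both His-tagged. Catalytic domains only; DMSO 0.75%.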

JAK1 = molecular target: T2, JAK1 (Homo sapiens, UniProt P23458); test: JAK1 kinase assay (HTRF, inhibition of phosphorylation of a synthetic peptide); conditions: catalytic domain aa 850-1154, GST-tag; 7 μM ATP (Km); read-out: JAK1 kinase inhibitory activity (EC50)
T2 construct: JAK1 (aa 850-1154) and TYK2 (aa 871-1187) are expressed with an N-terminally fused GST-tag; GST (N); purchased Carna Biosciences, Inc; host or cells: baculovirus expression system
T2 sequence (P23458 850-1154): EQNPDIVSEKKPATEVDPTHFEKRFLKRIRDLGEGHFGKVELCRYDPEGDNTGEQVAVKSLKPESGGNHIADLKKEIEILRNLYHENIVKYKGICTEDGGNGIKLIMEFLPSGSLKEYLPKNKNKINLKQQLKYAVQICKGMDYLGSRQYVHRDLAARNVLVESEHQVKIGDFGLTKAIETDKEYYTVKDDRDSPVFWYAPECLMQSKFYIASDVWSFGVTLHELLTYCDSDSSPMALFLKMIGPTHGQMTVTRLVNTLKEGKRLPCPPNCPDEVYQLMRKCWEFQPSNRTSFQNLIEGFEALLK
Summary of the method: as §1

TYK2 = molecular target: T3, TYK2 (Homo sapiens, UniProt P29597); test: TYK2 kinase assay (HTRF, inhibition of phosphorylation of a synthetic peptide); conditions: catalytic domain aa 871-1187, GST-tag; 13 μM ATP (Km); read-out: TYK2 kinase inhibitory activity (EC50)
T3 construct: JAK1 (aa 850-1154) and TYK2 (aa 871-1187) are expressed with an N-terminally fused GST-tag; GST (N); purchased Carna Biosciences, Inc; host or cells: baculovirus expression system
T3 sequence (P29597 871-1187): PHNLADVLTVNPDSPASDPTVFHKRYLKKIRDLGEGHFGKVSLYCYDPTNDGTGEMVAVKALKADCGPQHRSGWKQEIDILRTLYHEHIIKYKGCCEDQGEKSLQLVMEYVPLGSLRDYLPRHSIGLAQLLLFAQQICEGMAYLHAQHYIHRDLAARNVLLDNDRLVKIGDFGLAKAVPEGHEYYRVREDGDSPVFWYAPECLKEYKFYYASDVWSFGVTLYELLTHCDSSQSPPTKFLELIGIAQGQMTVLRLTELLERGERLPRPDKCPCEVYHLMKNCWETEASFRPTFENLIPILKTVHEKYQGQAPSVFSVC
Summary of the method: as §1

JAK2 = molecular target: T4, JAK2 (Homo sapiens, UniProt O60674); test: JAK2 kinase assay (HTRF, inhibition of phosphorylation of a synthetic peptide); conditions: catalytic domain, His-tag; 4 μM ATP (Km); read-out: JAK2 kinase inhibitory activity (EC50)
T4 construct: All four purified enzymes contain only the catalytic domain; His (N); purchased Carna Biosciences, Inc; host or cells: baculovirus expression system
T4 sequence (O60674 849-1124 limits assumed): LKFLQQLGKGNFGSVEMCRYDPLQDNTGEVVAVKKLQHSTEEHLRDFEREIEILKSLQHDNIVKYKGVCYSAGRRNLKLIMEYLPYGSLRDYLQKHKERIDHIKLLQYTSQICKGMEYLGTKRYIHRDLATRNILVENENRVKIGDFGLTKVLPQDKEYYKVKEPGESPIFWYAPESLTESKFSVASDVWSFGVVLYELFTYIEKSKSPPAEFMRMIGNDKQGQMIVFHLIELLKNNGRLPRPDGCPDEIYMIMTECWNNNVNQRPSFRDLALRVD
Summary of the method: as §1

SMILES | pEC50 (JAK3) | pEC50 (JAK1) | pEC50 (TYK2) | pEC50 (JAK2)
NS(=O)(=O)c1ccc(/C=C/C(=O)N2CCN(c3ncnc4[nH]ccc34)CC3(CC3)C2)cc1 [Example 54, 4-[(E)-3-oxo-3-[5-(7H-pyrrolo[2,3-d]pyrimidin-4-yl)-5,8-diazaspiro[2.6]nonan-8-yl]prop-1-enyl]benzenesulfonamide] | 6.00 to 7.00 | > 7.00 | 6.00 to 7.00 | > 7.00
N#Cc1ccc(C(=O)N2CCCN(c3ncnc4[nH]ccc34)CC23CC3)cc1 [Example 56, 4-[5-(7H-pyrrolo[2,3-d]pyrimidin-4-yl)-5,9-diazaspiro[2.6]nonane-9-carbonyl]benzonitrile] | 6.00 to 7.00 | > 7.00 | < 6.00 | > 7.00
N#Cc1cccc(C(=O)N2CCCN(c3ncnc4[nH]ccc34)CC23CC3)c1 [Example 57, 3-[5-(7H-pyrrolo[2,3-d]pyrimidin-4-yl)-5,9-diazaspiro[2.6]nonane-9-carbonyl]benzonitrile] | 6.00 to 7.00 | 6.00 to 7.00 | 6.00 to 7.00 | > 7.00
N#Cc1cccc(CC(=O)N2CCCN(c3ncnc4[nH]ccc34)CC23CC3)c1 [Example 58, 3-[2-oxo-2-[5-(7H-pyrrolo[2,3-d]pyrimidin-4-yl)-5,9-diazaspiro[2.6]nonan-9-yl]ethyl]benzonitrile] | < 6.00 | < 6.00 | < 6.00 | < 6.00
N#Cc1ccc(CC(=O)N2CCCN(c3ncnc4[nH]ccc34)CC23CC3)cc1 [Example 59, 4-[2-oxo-2-[5-(7H-pyrrolo[2,3-d]pyrimidin-4-yl)-5,9-diazaspiro[2.6]nonan-9-yl]ethyl]benzonitrile] | < 6.00 | 6.00 to 7.00 | < 6.00 | 6.00 to 7.00
N#CC1(C(=O)N2CCCN(c3ncnc4[nH]ccc34)CC23CC3)CC1 [Example 60, 1-[5-(7H-pyrrolo[2,3-d]pyrimidin-4-yl)-5,9-diazaspiro[2.6]nonane-9-carbonyl]cyclopropanecarbonitrile] | 6.00 to 7.00 | 6.00 to 7.00 | < 6.00 | > 7.00
N#CCCC(=O)N1CCCN(c2ncnc3[nH]ccc23)CC12CC2 [Example 61, 4-oxo-4-[5-(7H-pyrrolo[2,3-d]pyrimidin-4-yl)-5,9-diazaspiro[2.6]nonan-9-yl]butanenitrile] | 6.00 to 7.00 | 6.00 to 7.00 | < 6.00 | 6.00 to 7.00
NS(=O)(=O)c1ccc(NC(=O)C(=O)N2CCN(c3ncnc4[nH]ccc34)CC3(CC3)C2)cc1 [Example 64, 2-oxo-2-[5-(7H-pyrrolo[2,3-d]pyrimidin-4-yl)-5,8-diazaspiro[2.6]nonan-8-yl]-N-(4-sulfamoylphenyl)acetamide] | > 7.00 | > 7.00 | 6.00 to 7.00 | > 7.00
NS(=O)(=O)c1ccc(-c2ccc(C(=O)N3CCN(c4ncnc5[nH]ccc45)CC4(CC4)C3)o2)cc1 [Example 65, 4-[5-[5-(7H-pyrrolo[2,3-d]pyrimidin-4-yl)-5,8-diazaspiro[2.6]nonane-8-carbonyl]-2-furyl]benzenesulfonamide] | 6.00 to 7.00 | > 7.00 | 6.00 to 7.00 | > 7.00
O=C(Cc1ccc(I)cc1)N1CCN(c2ncnc3[nH]ccc23)CC2(CC2)C1 [Example 66, 2-(4-iodophenyl)-1-[5-(7H-pyrrolo[2,3-d]pyrimidin-4-yl)-5,8-diazaspiro[2.6]nonan-8-yl]ethanone] | 6.00 to 7.00 | > 7.00 | 6.00 to 7.00 | > 7.00
Nc1nc(N2CCCN(Cc3ccccc3)C3(CC3)C2)c2cc[nH]c2n1 [Example 67, 4-(9-benzyl-5,9-diazaspiro[2.6]nonan-5-yl)-7H-pyrrolo[2,3-d]pyrimidin-2-amine] | < 6.00 | < 6.00 | < 6.00 | < 6.00
Nc1nc(N2CCN(Cc3ccccc3)CC3(CC3)C2)c2cc[nH]c2n1 [Example 68, 4-(5-benzyl-5,8-diazaspiro[2.6]nonan-8-yl)-7H-pyrrolo[2,3-d]pyrimidin-2-amine] | < 6.00 | < 6.00 | < 6.00 | < 6.00
Cc1cc(S(N)(=O)=O)ccc1C(=O)N1CCN(c2ncnc3[nH]ccc23)CC2(CC2)C1 [Example 71, 3-methyl-4-[5-(7H-pyrrolo[2,3-d]pyrimidin-4-yl)-5,8-diazaspiro[2.6]nonane-8-carbonyl]benzenesulfonamide] | 6.00 to 7.00 | 6.00 to 7.00 | < 6.00 | 6.00 to 7.00
NS(=O)(=O)c1cc(C(=O)N2CCN(c3ncnc4[nH]ccc34)CC3(CC3)C2)cs1 [Example 75] | 6.00 to 7.00 | > 7.00 | 6.00 to 7.00 | > 7.00

Second part, the compound after the results:

pEC50 (JAK3) | pEC50 (JAK1) | pEC50 (TYK2) | pEC50 (JAK2) | SMILES
6.00 to 7.00 | > 7.00 | < 6.00 | > 7.00 | CS(=O)(=O)c1ccc(CC(=O)N2CCN(c3ncnc4[nH]ccc34)CC3(CC3)C2)cc1 [Example 55, 2-(4-methylsulfonylphenyl)-1-[5-(7H-pyrrolo[2,3-d]pyrimidin-4-yl)-5,8-diazaspiro[2.6]nonan-8-yl]ethanone]
6.00 to 7.00 | 6.00 to 7.00 | < 6.00 | 6.00 to 7.00 | N#Cc1ccc(C(=O)N2CCN(c3ncnc4[nH]ccc34)CC3(CC3)C2)cc1 [Example 62, 4-[5-(7H-pyrrolo[2,3-d]pyrimidin-4-yl)-5,8-diazaspiro[2.6]nonane-8-carbonyl]benzonitrile]
> 7.00 | > 7.00 | > 7.00 | > 7.00 | NS(=O)(=O)c1ccc(OCC(=O)N2CCN(c3ncnc4[nH]ccc34)CC3(CC3)C2)cc1 [Example 63, 4-[2-oxo-2-[5-(7H-pyrrolo[2,3-d]pyrimidin-4-yl)-5,8-diazaspiro[2.6]nonan-8-yl]ethoxy]benzenesulfonamide]
6.00 to 7.00 | 6.00 to 7.00 | < 6.00 | 6.00 to 7.00 | N#CCCNS(=O)(=O)c1ccc(C(=O)N2CCN(c3ncnc4[nH]ccc34)CC3(CC3)C2)cc1 [Example 69, N-(2-cyanoethyl)-4-[5-(7H-pyrrolo[2,3-d]pyrimidin-4-yl)-5,8-diazaspiro[2.6]nonane-8-carbonyl]benzenesulfonamide]
6.00 to 7.00 | 6.00 to 7.00 | < 6.00 | 6.00 to 7.00 | O=C(c1ccc(S(=O)(=O)NCC2CCCO2)cc1)N1CCN(c2ncnc3[nH]ccc23)CC2(CC2)C1 (stereo not shown) [Example 70]
6.00 to 7.00 | 6.00 to 7.00 | < 6.00 | > 7.00 | CNS(=O)(=O)c1ccc(C(=O)N2CCN(c3ncnc4[nH]ccc34)CC3(CC3)C2)cc1 [Example 72, N-methyl-4-[5-(7H-pyrrolo[2,3-d]pyrimidin-4-yl)-5,8-diazaspiro[2.6]nonane-8-carbonyl]benzenesulfonamide]
6.00 to 7.00 | 6.00 to 7.00 | < 6.00 | 6.00 to 7.00 | NS(=O)(=O)c1cccc(C(=O)N2CCN(c3ncnc4[nH]ccc34)CC3(CC3)C2)c1 [Example 73, 3-[5-(7H-pyrrolo[2,3-d]pyrimidin-4-yl)-5,8-diazaspiro[2.6]nonane-8-carbonyl]benzenesulfonamide]
6.00 to 7.00 | 6.00 to 7.00 | < 6.00 | 6.00 to 7.00 | COCCNS(=O)(=O)c1ccc(C(=O)N2CCN(c3ncnc4[nH]ccc34)CC3(CC3)C2)cc1 [Example 74, N-(2-methoxyethyl)-4-[5-(7H-pyrrolo[2,3-d]pyrimidin-4-yl)-5,8-diazaspiro[2.6]nonane-8-carbonyl]benzenesulfonamide]
